Measurements taken from ChEMBL document CHEMBL1201862, “PubChem BioAssay data set” (2004).
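Dose response: 5 concentrations. Exposure: 48 h. Format: 96-well plates. Endpoint: linear interpolation; highest concentration if not reached. The concentration for 50% growth inhibition is given as GI50.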 Active and inactive are the calls of the source. No stated cut-off is given here; in the data, active = GI50 up to about 1.1 µM and inactive = higher.

Tests used:
Assay in all cases: NCI tumour cell line growth inhibition, 48 h
DMS-114 = test system: DMS-114
KM-20L2 = test system: KM-20L2
SNB-78 = test system: SNB-78
DLD-1 = test system: DLD-1
DMS-273 = test system: DMS-273
HOP-18 = test system: HOP-18
M19-MEL = test system: M19-MEL
RXF 631 = test system: RXF 631
XF498 = test system: XF498

Measured: GI50

COC1CCCc2c(OC(C)=O)ccc(OC(C)=O)c21 (stereo unspecified)
inactive: DMS-114 > 100 µM | KM-20L2 > 100 µM | SNB-78 36 µM

CN(C)CC1CCCC/C1=N/OC(=O)c1ccc(Cl)c(Cl)c1 (stereo unspecified)
inactive: DLD-1 > 100 µM | DMS-114 > 100 µM | DMS-273 > 100 µM | HOP-18 > 100 µM | KM-20L2 > 100 µM | M19-MEL > 100 µM | RXF 631 > 100 µM

C=C1C(=O)O[C@H]2[C@H]1[C@H](OC(=O)/C(C)=C\C)CC(=C)[C@@H]1[C@H](O)[C@H]3O[C@@]3(C)[C@@]12O [EUPATUNDIN]
inactive: DLD-1 > 100 µM | DMS-114 > 100 µM | DMS-273 > 100 µM | HOP-18 > 100 µM | KM-20L2 > 100 µM | M19-MEL > 100 µM | RXF 631 > 100 µM | SNB-78 > 100 µM | XF498 > 100 µM

C=C[C@@]1(C)CCC2(O)C(CCC3C2(C)CCC[C@@]3(C)COC(=O)CC(=O)OC)C1 (stereo partly specified)
inactive: DLD-1 17.4 µM | KM-20L2 18.7 µM | RXF 631 19.1 µM | SNB-78 26.1 µM | XF498 21.6 µM

CN(C)CCC(CCN(C)C)=NO
inactive: DLD-1 > 100 µM | DMS-114 > 100 µM | DMS-273 > 100 µM | HOP-18 > 100 µM | KM-20L2 > 100 µM | M19-MEL > 100 µM | RXF 631 > 100 µM | SNB-78 > 100 µM

CCCCCCCCC(=O)CCCCCCCCC(=O)O
inactive: DLD-1 20.1 µM | DMS-114 23 µM | DMS-273 25.3 µM | HOP-18 19.2 µM | KM-20L2 25.9 µM | M19-MEL 47.5 µM | RXF 631 21 µM | SNB-78 > 100 µM | XF498 34.2 µM

CSC1=NC=CCN1C
inactive: DLD-1 > 100 µM | DMS-114 > 100 µM | DMS-273 > 100 µM | HOP-18 > 100 µM | KM-20L2 > 100 µM | M19-MEL > 100 µM

O=C(c1ccccc1)c1nnc(C(=O)c2ccccc2)nn1
inactive: DLD-1 > 344 µM | DMS-273 > 344 µM | HOP-18 > 344 µM | KM-20L2 > 344 µM | M19-MEL > 344 µM | SNB-78 170 µM

Sc1nnc(-c2ccccc2)n1/N=C\c1ccc(-c2ccc(Cl)cc2)o1
inactive: DLD-1 > 100 µM | KM-20L2 > 100 µM | M19-MEL > 100 µM | SNB-78 > 100 µM

CNC(=O)NC(CCCCNC(=O)OCc1ccccc1)C(=O)OCc1ccccc1 (stereo unspecified)
inactive: DLD-1 > 100 µM | DMS-114 28.1 µM | DMS-273 35.9 µM | KM-20L2 > 100 µM | M19-MEL 17 µM | SNB-78 33.4 µM | XF498 15.2 µM

NC(=O)/N=C1\NC(Cc2ccccc2)C(=O)N1Cc1ccccc1 (stereo unspecified)
inactive: DLD-1 > 100 µM | DMS-114 > 100 µM | DMS-273 > 100 µM | KM-20L2 > 100 µM | M19-MEL > 100 µM | SNB-78 > 100 µM | XF498 35.6 µM

Cc1ccc2ccc(-c3ccccc3)c3c2c1C(=O)c1ccccc1C3=O
inactive: DLD-1 > 100 µM | DMS-114 > 100 µM | DMS-273 53.8 µM | HOP-18 54.6 µM | KM-20L2 > 100 µM | M19-MEL 76.2 µM | SNB-78 > 100 µM | XF498 15.8 µM

CCCCCCCC/C=C1\CCC(CN(C)C)C1=O (stereo unspecified)
inactive: DLD-1 2.16 µM | DMS-114 4.01 µM | DMS-273 2.43 µM | HOP-18 19.5 µM | KM-20L2 7.6 µM | M19-MEL 3.36 µM | RXF 631 5.64 µM | SNB-78 7.45 µM | XF498 6.22 µM

CCOc1cccc2cccnc12
inactive: DLD-1 > 100 µM | DMS-114 > 100 µM | HOP-18 57.5 µM | KM-20L2 > 100 µM | XF498 > 100 µM

C#CCN(N=O)C(=O)NC(CCCNC(=O)OCc1ccccc1)C(=O)OCc1ccccc1 (stereo unspecified)
inactive: DLD-1 57.1 µM | DMS-114 67.3 µM | DMS-273 > 100 µM | KM-20L2 > 100 µM | M19-MEL > 100 µM | SNB-78 > 100 µM | XF498 18 µM

O=C(O)c1ccccc1NS(=O)(=O)c1ccc(Cl)cc1
inactive: DLD-1 > 100 µM | DMS-114 > 100 µM | DMS-273 > 100 µM | HOP-18 > 100 µM | KM-20L2 > 100 µM | M19-MEL > 100 µM | SNB-78 > 100 µM | XF498 > 100 µM

O=C1C2C3C=CC(C2C(=O)N1COP(=O)(O)O)C1C2C(=O)N(COP(=O)(O)O)C(=O)C2C31 (stereo unspecified)
inactive: DLD-1 > 49.2 µM | DMS-114 > 41.7 µM | DMS-273 > 41.4 µM | HOP-18 > 100 µM | KM-20L2 > 100 µM | M19-MEL > 100 µM | SNB-78 > 100 µM | XF498 > 100 µM

CC1=NC(C(C)C)C(=O)O1 (stereo unspecified)
inactive: DLD-1 56.2 µM | DMS-114 24.6 µM | DMS-273 56 µM | HOP-18 > 100 µM | KM-20L2 > 100 µM | M19-MEL > 100 µM | RXF 631 > 100 µM | SNB-78 > 100 µM | XF498 > 100 µM

COc1cc(Nc2nc3cc(C(F)(F)F)ccc3nc2-c2ccccc2)cc(OC)c1OC
inactive: DLD-1 > 100 µM | DMS-114 > 100 µM | DMS-273 22.8 µM | RXF 631 61.8 µM | SNB-78 46.2 µM | XF498 32.5 µM

CS(=O)(=O)c1cc(=O)c2ccccc2s1
inactive: DLD-1 1.91 µM | DMS-114 4.82 µM | DMS-273 8.77 µM | HOP-18 3.85 µM | KM-20L2 11.7 µM | M19-MEL 7.69 µM | RXF 631 11 µM | SNB-78 4.99 µM | XF498 2.14 µM

CCN1C(=O)/C(=C\c2coc3ccccc3c2=O)SC1=S
inactive: DLD-1 > 100 µM | DMS-114 > 100 µM | DMS-273 59 µM | HOP-18 80.4 µM | KM-20L2 > 100 µM | M19-MEL > 100 µM | SNB-78 56.8 µM | XF498 40 µM

COc1ccc(/C(=C/n2ccnc2)C(O)c2ccc(OC)c(OC)c2)cc1OC (stereo unspecified)
inactive: DLD-1 > 100 µM | DMS-273 > 100 µM | HOP-18 > 100 µM | KM-20L2 > 100 µM | M19-MEL > 100 µM

CSC1CC2C(CC1(C)SC)C2(C)C (stereo unspecified)
inactive: DLD-1 58.1 µM | DMS-273 45.4 µM | M19-MEL 37.2 µM | SNB-78 74.3 µM | XF498 19.7 µM

CCCCCCCCCCCCCCCCc1c(C(=O)OC)[nH]c(=S)[nH]c1=O
inactive: DLD-1 > 50 µM | DMS-273 > 50 µM | HOP-18 > 50 µM | KM-20L2 > 50 µM | M19-MEL > 50 µM | RXF 631 > 50 µM | SNB-78 > 50 µM | XF498 > 50 µM
